# Results: patent publication US7544476B1, “Identifying cancers sensitive to treatment with inhibitors of notch signaling” (AVEO Pharmaceuticals, Inc., priority 2008, dated 2009)
# Key:
# [1] = system: LS-1034 colon cancer cell line; test: Notch target gene expression by qRT-PCR after treatment with gamma-secretase inhibitor; format: cell-based, human
# Protocol: (§1) Cells were seeded into 6-well plates in 2 mL of media. Replicates wells of cells treated with 1 μM, 3 μM, and 6 μM Gamma Secretase Inhibitor (GSI; Sigma L-685,458) or DMSO (Sigma D2650) (vehicle control) immediately after seeding. Cells were incubated at 37° C. 5% CO2 for 20 hours after treatment, then collected, rinsed with PBS (Invitrogen 14040-133), and cell pellets were frozen on dry ice and stored at −80° C. Subsequently, RNA was prepared by hand using the Qiagen RNeasy™ miniprep columns (Qiagen GR8RNA) and qRT-PCR performed to analyze Notch target gene expression according to standard protocol (Qiagen Quantitect SYBR GREEN RT-PCR kit 204245). Quantitative RT-PCR was run on Applied Biosystems 7900HT Sequence Detection System. Results were analyzed using the comparative Ct method. Beta Actin was used as the housekeeping gene and Stratagene Universal Human Reference RNA (Stratagene Cat. No. 740000) was used as an external reference sample to determine the level of expression of the Notch target genes Hes1, Hes5, Hes6, Hes7, Hey1, Hey2, HeyL, and Helt.
# [2] = system: HT-29 colon cancer cell line; test: as above; format: cell-based, human
# Protocol: as §1
# [3] = system: mouse tumors that did not exhibit elevated Notch1 expression; test: Cell viability assay on disaggregated retroviral-induced tumors treated with GSI; format: cell-based; conditions: mouse tumors without elevated Notch1 expression
# Protocol: (§2) To perform the analyses on the retroviral-induced tumors, tumor-bearing animals were euthanized, tumors were collected and 0.2 g pieces were disaggregated using 4 mg/ml collagenase in RPMI media for 2 hours at 37° C. Cells were further disaggregated by passage through an 18 G needle 5-10 times. Single cells in suspension were aspirated in the supernatant for further analysis. For cell viability assays, single cells were re-seeded at 100,000 cell per well in 12-well plates in RPMI media supplemented with 10% FBS, 1% PenStrep, and 0.01 μM Beta estradiol. Cells were then treated for 48 hours with 1, 3 or 10 μM GSI (Sigma L-685,458) or vehicle control. Cell viability and apoptosis were assessed using Guava PCA-96 Viacount Flex reagent (Cat. No. 4700-0060) and measured using a Guava PCA-96 instrument, according to manufacturer's protocol. To measure mRNA expression levels, fresh tumor samples were collected, RNA was prepared using standard protocols, and microarray gene expression profile analysis was performed using Agilent cDNA microarray chips according to manufacturer's recommended protocols. Relative expression of HeyL and other genes was calculated by comparison to a universal mouse reference RNA sample from Stratagene (Universal Mouse Reference RNA Cat. No. 740100). […]
# [4] = system: mouse tumors with enhanced expression of Notch1 caused by Mo-MuLV integration near the Notch1 locus; test: as above; format: cell-based
# Protocol: To perform the analyses on the retroviral-induced tumors, tumor-bearing animals were euthanized, tumors were collected and 0.2 g pieces were disaggregated using 4 mg/ml collagenase in RPMI media for 2 hours at 37° C. Cells were further disaggregated by passage through an 18 G needle 5-10 times. Single cells in suspension were aspirated in the supernatant for further analysis.
# as §2, with “For” for “To perform the analyses on the retroviral-induced tumors, tumor-bearing animals were euthanized, tumors were collected and 0.2 g pieces were disaggregated using 4 mg/ml collagenase in RPMI media for 2 hours at 37° C. Cells were further disaggregated by passage through an 18 G needle 5-10 times. Single cells in suspension were aspirated in the supernatant for further analysis. For”
smiles,measurement,setting,value
CC(C)C[C@H](NC(=O)[C@H](Cc1ccccc1)C[C@@H](O)[C@H](Cc1ccccc1)NC(=O)OC(C)(C)C)C(=O)N[C@@H](Cc1ccccc1)C(N)=O [GSI],expression of Notch target genes,[1],decreases expression of Notch target genes
same,expression of Notch target genes,[2],decreases expression of Notch target genes
same,sensitivity of tumor growth to inhibition by GSI,[3],not sensitive
same,sensitivity of tumor growth to inhibition by GSI,[4],sensitivity to inhibition
